From patent publication US9790188B2, “Benzimidazole derivatives and uses thereof” (Whitehead Institute for Biomedical Research, priority 2013, dated 2017)
“Also recorded” adds a separate entry of the source.

Experiments:
reactive oxygen species = test: ROS detection (CM-H2DCFDA, flow cytometry) in α-syn yeast; type: cell-based; details: 10 μM, HiTox strain
Method: The generation of reactive oxygen species (ROS) detected from yeast expressing untagged α-syn using the ROS sensing dye, CM-H2DCFDA (Invitrogen), as previously described (9). Briefly, log phase raffinose cultures of α-syn (non-GFP tagged) were induced with galactose with or without ABI1 for 6 hours. At this time, the dye was added for an additional 30 minutes. Cells were then analyzed using an EasyCyte flow cytometer (Guava Technologies).

WT yeast = test: Growth inhibition of wild-type yeast (dose-response); type: cell-based; details: at concentrations higher than those that rescue α-syn toxicity
Method: Source plates were assembled in 96 well plates using multichannel pipettes to dilute rows in 1.6-fold serial dilutions of CSMGal. […] For α-syn, the final starting OD600 was 0.02. Drug concentration ranges varied depending on efficacy, growth inhibition, and solubility in media. A Tecan EvoFreedom liquid handling robot was then used to transfer culture from 96 to 384 well format with each well being represented four times. Final well volume was 35 μL. Plates were then incubated in humidified containers at 30° C. for either 24 or 40 hours. Plates were then read with a Tecan Saphire plate reader at OD600.
Raw OD600 values were transformed to “Relative Growth” in WT cells or “% Maximum Rescue” in α-syn experiments. In WT cells, the well background was subtracted and all values were then normalized to 100% for the untreated condition. In α-syn rescue experiments, the well background was subtracted and the maximum rescue in the particular experiment was normalized to 100%.

Rsp5p = Rsp5p (Saccharomyces cerevisiae, UniProt P39940); details: pers. comm.; cited from earlier work
Nedd4 = target: T1, Nedd4 (Homo sapiens, UniProt P46934); details: pers. comm.; cited from earlier work
T1 sequence (P46934 1-1319): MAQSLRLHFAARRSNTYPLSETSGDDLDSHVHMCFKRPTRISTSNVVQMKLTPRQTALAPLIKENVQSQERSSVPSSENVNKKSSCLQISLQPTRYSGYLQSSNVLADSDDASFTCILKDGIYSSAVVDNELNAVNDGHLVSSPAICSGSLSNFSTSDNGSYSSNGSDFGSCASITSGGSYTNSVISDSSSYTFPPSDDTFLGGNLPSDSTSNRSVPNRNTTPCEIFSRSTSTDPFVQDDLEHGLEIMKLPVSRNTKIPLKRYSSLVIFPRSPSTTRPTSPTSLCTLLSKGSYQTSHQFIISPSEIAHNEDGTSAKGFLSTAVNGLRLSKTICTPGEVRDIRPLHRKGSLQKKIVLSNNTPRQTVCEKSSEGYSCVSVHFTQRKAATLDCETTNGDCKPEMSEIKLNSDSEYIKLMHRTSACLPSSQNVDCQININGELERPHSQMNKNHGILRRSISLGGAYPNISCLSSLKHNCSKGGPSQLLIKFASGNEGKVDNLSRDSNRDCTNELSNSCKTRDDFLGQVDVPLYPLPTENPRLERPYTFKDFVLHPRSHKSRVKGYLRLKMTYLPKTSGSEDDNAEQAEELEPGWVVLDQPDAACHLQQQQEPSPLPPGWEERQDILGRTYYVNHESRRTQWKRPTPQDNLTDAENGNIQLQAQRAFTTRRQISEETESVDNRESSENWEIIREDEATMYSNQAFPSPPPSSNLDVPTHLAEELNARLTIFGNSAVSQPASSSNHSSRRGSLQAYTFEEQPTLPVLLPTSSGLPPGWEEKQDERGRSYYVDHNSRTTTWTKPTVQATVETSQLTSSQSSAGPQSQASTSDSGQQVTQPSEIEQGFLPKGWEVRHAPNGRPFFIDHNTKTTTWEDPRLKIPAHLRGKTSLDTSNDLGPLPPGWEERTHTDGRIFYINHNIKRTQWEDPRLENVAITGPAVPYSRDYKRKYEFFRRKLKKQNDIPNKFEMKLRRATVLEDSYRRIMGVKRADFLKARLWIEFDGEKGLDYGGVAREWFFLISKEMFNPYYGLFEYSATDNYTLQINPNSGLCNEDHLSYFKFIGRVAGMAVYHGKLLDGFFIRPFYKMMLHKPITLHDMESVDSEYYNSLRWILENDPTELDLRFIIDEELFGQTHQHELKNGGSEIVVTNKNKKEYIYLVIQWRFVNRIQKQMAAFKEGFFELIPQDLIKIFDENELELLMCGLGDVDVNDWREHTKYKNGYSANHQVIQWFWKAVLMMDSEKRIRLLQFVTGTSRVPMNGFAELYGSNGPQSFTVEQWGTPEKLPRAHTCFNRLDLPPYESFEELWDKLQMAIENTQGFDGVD

aSyn^A53T iPS neurons = test: ER protein trafficking (nicastrin, GCase, Endo H) in patient iPS neurons; details: human cortical neurons from iPSCs of a patient carrying α-syn mutations
Method: Trafficking from ER was assessed by probing for nicastrin and GCase with or without Endo H treatment. Data are normalized using corrected/A53T ratios established in FIG. 6 to more faithfully depict the biological significance of the small molecule effects (n=3). […] All data represented as mean±SEM (*: p<0.05; **: p<0.01, two tail t-test compared to control condition).
Trafficking from ER was assessed by probing for nicastrin and GCase with or without Endo H treatment.

Rsp5p, sequence (P39940 whole entry): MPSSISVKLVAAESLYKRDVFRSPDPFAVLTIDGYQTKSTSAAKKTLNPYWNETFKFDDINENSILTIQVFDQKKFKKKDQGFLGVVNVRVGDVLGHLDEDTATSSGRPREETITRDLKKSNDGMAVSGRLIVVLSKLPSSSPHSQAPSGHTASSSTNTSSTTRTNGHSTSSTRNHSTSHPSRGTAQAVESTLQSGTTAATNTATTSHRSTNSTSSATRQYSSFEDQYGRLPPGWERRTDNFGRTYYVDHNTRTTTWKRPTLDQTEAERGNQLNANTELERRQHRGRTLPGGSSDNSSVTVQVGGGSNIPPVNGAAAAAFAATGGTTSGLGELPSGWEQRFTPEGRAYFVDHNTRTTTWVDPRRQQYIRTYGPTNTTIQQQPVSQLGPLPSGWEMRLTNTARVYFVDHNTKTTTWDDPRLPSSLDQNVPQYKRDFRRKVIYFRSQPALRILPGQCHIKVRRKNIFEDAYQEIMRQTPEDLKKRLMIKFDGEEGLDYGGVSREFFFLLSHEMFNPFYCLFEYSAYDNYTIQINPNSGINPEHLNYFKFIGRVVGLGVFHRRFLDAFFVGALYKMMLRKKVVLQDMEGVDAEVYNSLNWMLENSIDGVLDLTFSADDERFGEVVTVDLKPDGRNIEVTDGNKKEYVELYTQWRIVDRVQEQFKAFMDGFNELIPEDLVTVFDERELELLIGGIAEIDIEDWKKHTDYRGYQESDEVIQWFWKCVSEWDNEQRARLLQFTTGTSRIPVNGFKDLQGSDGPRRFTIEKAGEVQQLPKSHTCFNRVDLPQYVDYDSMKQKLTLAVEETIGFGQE

## Cc1cccc(-n2cnc3cc(C(=O)NCc4ccccc4Cl)ccc32)c1 [ABI, N-(2-chlorobenzyl)-1-(m-tolyl)-1H-benzo[d]imidazole-5-carboxamide]
Reactive oxygen species
  generation of reactive oxygen species (% of ROS-positive cells): completely abolished; also recorded: reduced the % of ROS-positive cells
WT yeast
  growth inhibition of wild-type cells: inhibited the growth of wild-type cells
Rsp5p
  ubiquitination of recombinant Rsp5p in vitro: did not enhance ubiquitination
Nedd4
  ubiquitination of recombinant Nedd4 in vitro: did not enhance ubiquitination
aSyn^A53T iPS neurons
  ER-to-Golgi protein trafficking defect: ameliorated an ER-to-Golgi protein trafficking defect
